Experiments:
[1] = test system: ovariectomized (OVX) cynomolgus monkeys; experiment: DXA bone mineral density of lumbar spine and femur in OVX cynomolgus monkeys, 18 months oral treatment; type: in vivo, cynomolgus monkeys (Macaca fascicularis)
Protocol: The present, 18 month long study is performed in order to assess the effect of COMPOUND A on bone in a non-human primate model of osteoporosis.
(§1) One hundred purpose-bred female cynomolgus monkeys (Macaca fascicularis), 12-13 years of age with closed growth plates are used for this study conducted in compliance with GLP. Eighty animals underwent bilateral ovariectomy and monkeys assigned to the sham group (S) underwent sham surgery. They are dosed twice daily by oral gavage with vehicle (distilled water) or COMPOUND A maleate (COMPOUND A-AF) for 18 months (Table 1).
(§2) DXA (Dual Energy X-ray Absorptiometry) of the lumbar spine and femur is performed twice prior to and at 3 months intervals during treatment. Compression test of third lumbar vertebra and a three-point bending test for the midshaft femur are carried out according to standard procedures. In brief, the cranial and caudal ends of each vertebral body are cut off to obtain a vertebral body specimen with two parallel surfaces and a height of approximately 7 mm. Each specimen is placed between two plates and a load applied at a constant displacement rate of 6 mm/min until failure in an Instron Mechanical Testing Machine. The femur is placed on the lower supports of a three point bending fixture with the anterior side facing downward in an Instron Mechanical Testing Machine. Load is applied at a constant displacement rate of […] until failure.
(§3) All group data are first checked to ensure they meet the assumptions for parametric analysis (normality, homogeneity of variances). Data are transformed, if necessary, to meet the assumptions as closely as possible. Results using transformed data are used for interpretation. In general, data are analyzed by one-way analysis of variance (1-way ANOVA) for variables assessed only once during the treatment phase of the study. For variables assessed repeatedly during the treatment phase, a two-way (group, time) analysis of covariance (ANCOVA) with repeated measures on time is used. For each ANCOVA evaluation, average baseline data for individual animals is used as the covariate. Results are presented as Mean±SEM (standard error of mean).

[2] = test system: ovariectomized (OVX) cynomolgus monkeys; experiment: 3-point bending test of midshaft femur, OVX cynomolgus monkeys after 18 months treatment; type: in vivo, cynomolgus monkeys (Macaca fascicularis); settings: mean ± SEM; for Max load: n = 19-20
Protocol: as §1, §2, §3

[3] = test system: ovariectomized (OVX) cynomolgus monkeys; experiment: Compression test of third lumbar vertebra (LV3), OVX cynomolgus monkeys after 18 months treatment; type: in vivo, cynomolgus monkeys (Macaca fascicularis)
Protocol: as §1
DXA (Dual Energy X-ray Absorptiometry) of the lumbar spine and femur is performed twice prior to and at 3 months intervals during treatment. Compression test of third lumbar vertebra and a three-point bending test for the midshaft femur are carried out according to standard procedures. In brief, the cranial and caudal ends of each vertebral body are cut off to obtain a vertebral body specimen with two parallel surfaces and a height of approximately 7 mm. […]
All group data are first checked to ensure they meet the assumptions for parametric analysis (normality, homogeneity of variances). […] In general, data are analyzed by one-way analysis of variance (1-way ANOVA) for variables assessed only once during the treatment phase of the study. For variables assessed repeatedly during the treatment phase, a two-way (group, time) analysis of covariance (ANCOVA) with repeated measures on time is used. […]

[4] = test system: ovariectomized (OVX) cynomolgus monkeys; experiment: Mineral apposition rate (MAR) at the femoral neck, OVX cynomolgus monkeys; type: in vivo, cynomolgus monkeys (Macaca fascicularis)
Protocol: as §1
Mineral apposition rate (MAR), an indicator of bone formation, is reduced at cancellous bone for the femoral neck by the mid and high dose (FIG. 6) consistent with the action of an inhibitor of bone turnover.

[5] = test system: ovariectomized (OVX) cynomolgus monkeys; experiment: Tolerability in the 18 month OVX cynomolgus monkey study; type: in vivo; settings: for Tolerability: 18 months
Protocol: as §1
Ovariectomized (OVX) cynomolgus monkeys are treated orally for 18 months with 3, 10, or 50/30 mg/kg COMPOUND A maleate twice daily (bid).

[6] = test system: postmenopausal women; experiment: 12-week double-blind placebo controlled phase IIA study, biochemical markers of bone resorption and formation; type: in vivo, human
Protocol: In a 12-week treatment, multicenter, double-blind, randomized, placebo-controlled, parallel group, a dose-ranging, safety, tolerability and efficacy trial with Compound A in postmenopausal women, with 3 weeks follow-up is conducted.
The primary objectives of the study are to assess the effect of Compound A on biochemical markers of bone resorption and bone formation, and to evaluate its safety and tolerability profile. Secondary objectives are to assess the changes in biochemical markers after the end of treatment, and to study the pharmacokinetics of Compound A and its metabolite during and after 12 weeks of treatment.
The population of subjects is normal healthy postmenopausal women. The reason for not investigating osteopenic women is the following: The efficacy endpoints of the study are biochemical markers of bone turnover. These variables are not directly correlated with BMD in man. […] They are at least 5 years postinenopause, mainly because biomarkers are expected to fluctuate less in these women than in the perimenopause. […]
Four doses are tested, 5, 10, 25, and 50 mg od. The duration of the study is 12 weeks, with a 3-week follow-up, 12 weeks treatment allows to assess the timecourse of biomarkers of both, bone resorption and bone formation and to ascertain that a steady-state in biomarkers is achieved.

[7] = High group: 2 × 50 mg/kg/day 1st month, 2 × 30 months 2-18, oral
[8] = High group: 2 × 50 mg/kg/day 1st month, 2 × 30 months 2-18, oral, * p < 0.05 versus OVX
[9] = Low group: 2 × 3 mg/kg/day oral, 18 months
[10] = Low group: 2 × 3 mg/kg/day oral, 18 months, * p < 0.05 versus OVX
[11] = Mid group: 2 × 10 mg/kg/day oral, 18 months

CCCN1CCN(c2ccc(C(=O)NC3(C(=O)NCC#N)CCCCC3)cc2)CC1 [Compound A, N-[1-(cyanomethyl-carbamoyl)-cyclohexyl]-4-(4-propyl-piperazin-1-yl)-benzamide]
Whole femur BMD (DXA) compared to group O (OVX) ([1]; all three dose levels, over the whole 18 months period): significant increase | Lumbar spine LV1-4 BMD (DXA), effect versus OVX ([1]; all three doses (3, 10, 50/30 mg/kg bid), 18 months, p<0.05 versus OVX): inhibit the effect of OVX | Lumbar spine LV1-4 BMD (DXA), efficacy of group H relative to other doses ([1]; group H, 50/30 mg/kg bid): tended to be less efficacious | Anterior-posterior diameter of the femur midshaft ([1]; groups L and H versus groups S and O): tends to be larger | Whole femur BMD (DXA) compared to sham ([1]; treated groups, significant at month 9 for groups L and H and at month 18 for group M): even above sham for most time points | Moment of inertia [2, 7]: 322 ± 20 mm^4 | Ultimate strength [2, 7]: 196 ± 4 N/mm^2 | Energy [2, 8]: 1276 ± 87 * mJ | Toughness [2, 8]: 3.6 ± 0.2 MJ/m³ | Max load [2, 7]: 973 ± 45 N | Moment of inertia [2, 9]: 322 ± 20 mm^4 | Ultimate strength [2, 9]: 195 ± 5 N/mm^2 | Energy [2, 10]: 1305 ± 91 * mJ | Toughness [2, 10]: 3.7 ± 0.2 MJ/m³ | Max load [2, 9]: 972 ± 38 N | Energy [2, 11]: 1126 ± 88 mJ | Moment of inertia [2, 11]: 290 ± 16 mm^4 | Toughness [2, 11]: 3.3 ± 0.2 MJ/m³ | Ultimate strength [2, 11]: 193 ± 3 N/mm^2 | Max load [2, 11]: 894 ± 39 N | Maximum load in LV3 compression test versus OVX ([3]; all treatment groups (L, M, H), 18 months): increase maximum load | Maximum load in LV3 compression test, group H ([3]; group H, 50/30 mg/kg bid, p<0.01 versus OVX, p<0.05 versus Sham): increased above the group S level | Mineral apposition rate (MAR) at the periosteal side of the femoral neck ([4]; all doses, even the low dose is active): highly significantly increased | Mineral apposition rate (MAR) at cancellous bone for the femoral neck ([4]; mid and high dose): reduced | Food intake and body weight ([5]; 50 mg/kg bid oral, first month (then reduced to 30 mg/kg bid)): decreases in food intake and body weight | Tolerability ([5]; 3 and 10 mg/kg bid oral): well tolerated | Body weight gain ([5]; High group after reduction to 30 mg/kg bid, until end of study): remains significantly lower until the end of the study | Tolerability ([5]; OVX cynomolgus monkeys, oral twice daily, overall): generally well tolerated | Bone resorption marker serum CTX versus placebo ([6]; all doses except 5 mg (10, 25, 50 mg od), all time points, p<0.001): significant difference | Action on bone resorption marker (sCTX1) ([6]; postmenopausal women, 5, 10, 25, 50 mg od, 12 weeks): potent and rapid action | Bone formation markers (serum osteocalcin, BSAP) over time ([6]; postmenopausal women, 12 weeks): the decrease of suppression is less than that seen with the bone resorption markers | Other resorption biomarkers (serum NTX, urinary NTX) ([6]; postmenopausal women, 12 weeks): support results seen with serum CTX
